Laboratory results published in US12344588B2, “Sulfonamide compounds and use thereof” (Taiho Pharmaceutical Co., Ltd., priority 2017, dated 2025).
≈ marks a conversion by molar mass, not a printed value.

Assays:
Type in all cases: physicochemical
[1] = Stability test, optical purity by chiral HPLC; details: 40° C./75% RH (closed and open condition), 24 hours
Description: The optical purity was also measured by the following HPLC condition • Detector: UV at 240 nm • Column: […] IE (4.6×250 mm, 5 μm)/Daicel corp. • Column temperature: 40° C. • Mobile phase: n-hexane/ethanol/ethanolamine/acetic acid (65:35:0.5:0.2) • Flow rate: 1.0 mL/min • Injection: 5 μL • Sample temperature: 5° C. • Time span of measurement: 40 min Limit of Quantitation (LOQ): • Compound—RR,RS,SS: 0.05%
The optical purity was measured also with added 0.2% optical isomer.
The solid stability of the exemplary sample of the present invention and the free form obtained above was tested before and after the sample was stored at 40° C./75% RH (closed and open condition) for 24 hours.

Solubility test = details: for Solubility: 2 hours; for solubility at 2 h: 37 °C, thermodynamic from solid
Description: About 15 mg of the exemplary sample of the present invention was added to 1 mL of each solvent and was swelled at 37° C. for 2 hours under light resistant condition. After centrifugation, each supernatant was filtered, and 0.7 mL of a mixture of water and acetonitrile (1:1) was added to 0.1 mL of the filtrate.
Following of mobile phase: Control the gradient by mixing the mobile phase A and B as directed in the following table below • Flow rate: 1.0 mL per minutes • Time span of measurement: For 12 minutes after injection

[2] = Hygroscopicity: moisture adsorption/desorption test; details: relative humidity of 95%, 25° C.
Description: The moisture adsorption/desorption test was carried out according to the following conditions.
Approximately 10 to 15 mg of the sample was filled in a dedicated quartz holder, and the weight of each sample at each humidity was continuously measured and recorded under the following conditions.

change in the optical purity after storage [1]	Solubility (Solubility test; First fluid for dissolution test, pH 1.2, 37° C.)	Solubility (Solubility test; water, 37° C.)	hygroscopicity: mass change in moisture adsorption/desorption test ([2]; listed as obtained product)	solubility at 2 h (Solubility test; 50 mM acetate buffer, pH 4, aqueous buffer, Acetate buffer (50 mM, pH 4.0))	solubility at 2 h (Solubility test; 0.5% HPMC, aqueous with cosolvent or surfactant or cyclodextrin)	solubility at 2 h (Solubility test; First fluid for dissolution test, pH 1.2, simulated gastric fluid, pH 1.2, 37° C.)	solubility at 2 h (Solubility test; Second fluid for dissolution test, pH 6.8, aqueous buffer, pH 6.8, 37° C.)	solubility at 2 h (Solubility test; water)	hygroscopicity: mass change in moisture adsorption/desorption test ([2]; listed as free form)	SMILES
No significant change	230 µg/mL (≈ 476 µM)	230 µg/mL (≈ 476 µM)	about 0.1%							Cc1ccc(F)c([C@@H](C)[C@H](NS(=O)(=O)c2ccc(Cl)cc2C(N)=O)c2n[nH]c(=O)o2)c1C [Exemplary Sample, 5-chloro-2-(N-((1S,2R)-2-(6-fluoro-2,3-dimethylphenyl)-1-(5-oxo-4,5-dihydro-1,3,4-oxadiazol-2-yl)propyl)sulfamoyl)benzamide]
No significant change				250 µg/mL (≈ 518 µM)	190 µg/mL (≈ 393 µM)	230 µg/mL (≈ 476 µM)	800 µg/mL (≈ 1660 µM)	230 µg/mL (≈ 476 µM)	about 3.8%	Cc1ccc(F)c([C@@H](C)[C@H](NS(=O)(=O)c2ccc(Cl)cc2C(N)=O)c2n[nH]c(=O)o2)c1C [Comparative Example, 5-chloro-2-(N-((1S,2R)-2-(6-fluoro-2,3-dimethylphenyl)-1-(5-oxo-4,5-dihydro-1,3,4-oxadiazol-2-yl)propyl)sulfamoyl)benzamide]
